Measured values: patent US20070166710A1, “Methods for inhibiting adipogenesis and for treating type 2 diabetes” (priority 2003, published 2007)

Key:
Foxa-2 [1] = assay: Nuclear Foxa-2 in perfused livers, immunoblotting; format: in vivo, mice
Pepck, G6pc and Igfbp-1 = assay: mRNA levels of Foxa-2 target genes in primary hepatocytes (RT-PCR); format: cell-based; conditions: insulin alone (50 nM, 6 hours)
Procedure: FIGS. 10a-d depict the effect of insulin on Foxa-2 activity. FIG. 10a is a bar graph depicting relative Foxa-2 activity in HepG2 cells transfected with an expression vector for Foxa-2 and […]-Luc (gray bars) or p6xCdx-TkLuc (black bars). Cells were treated with insulin alone or in the presence of Ly294002 or PD98059. FIG. 10b is a bar graph depicting relative Foxa-2 activity in HepG2 cells transfected with p6xCdx-TkLuc and treated with insulin alone or in the presence of Ly294002 or PD98059. […] FIG. 10d is a bar graph depicting relative Foxa-2 activity in HepG2 cells transfected with an expression vector for Foxa-1, Foxa-2, Akt or Akt[…] alone or in combination, using p6xCdx-TkLuc as reporter gene. In all experiments luciferase activity was normalized to β-Gal activity. […] Levels of mRNA were analyzed to determine whether inhibition of Foxa-2 target gene expression by insulin is controlled at a transcriptional or posttranscriptional level. The mRNA levels of Pepck, G6pc and Igfbp-1 in primary hepatocytes that were cultured either in the presence or absence of insulin, PI3-kinase or MAPKK1 inhibitors were measured.

Foxa-2 [2] = assay: Immunoblot of phospho-TI56 Foxa-2 in livers after intraportal insulin; format: in vivo, mice
Procedure: FIG. 15a is an immunoblot of Foxa-2 and Foxo-1 in liver nuclear extracts of fed (n=3) and starved (n=3) mice. Anti-TATA binding protein (Tbp) antibodies were used as a loading control. FIGS. 15b and 15c are immunoblots of Foxa-2 and Foxo-1 in nuclear extracts of livers from mice perfused with different concentrations of insulin. FIG. 15d is a Western blot of Foxa-2 immunoprecipitated with anti-Foxa-2 antibodies from whole cell extracts of livers obtained from fasted mice 30 minutes after injection of 10 ng insulin or PBS in the portal vein. Samples (n=3 for each group) were analyzed by immunoblot analysis with an antibody directed against phospho-TI56 Foxa-2 (top panel) or with an antibody directed against total Foxa-2 protein (bottom panel). […]
The role of Foxa-2 in the regulation of liver gene expression by nutritional status was examined by determining the intracellular localization of Foxa-2 in fasted and fed mice by Western blotting of Foxa-2 in liver nuclear extracts and by immunohistochemistry. […] Strong Foxa-2 immunostaining was detected in hepatocyte nuclei of control (PBS) mice. […] Foxa-2 protein levels were measured in liver nuclei of C57/B6 mice that were perfused with a buffer containing a range of insulin concentrations that included fasting and postprandial insulin levels (0.2 and 4.0 ng/ml, respectively). […] Foxa-2 levels were determined by immunoblotting. […]

Foxa-2 activity = assay: Transactivation assay, HepG2 cells transfected with Foxa-2 and pPepck-Luc or p6xCdx-TkLuc; format: cell-based, rat; conditions: insulin 100 nM for the duration of transfection
Procedure: Transfections and Transactivation assay. HepG2 cells were grown to 60-70% confluence in a 24-well dish and transfected with 50 ng of each reporter gene (p6xCdx-TkLuc or pPEPCK-Luc), pCMV-β-Gal as internal reference and the expression vectors for wildtype or mutant Foxa-1 and Foxa-2 and human Akt1/Akt2 using the transfection reagent Fugene6 (Roche). Cells were grown for 48 hours and luciferase activity was measured using the Luciferase Detection System (Promega). Luciferase was normalized for transfection efficiency by β-galactosidase activity.
To analyze whether Foxa-2 activity is regulated by insulin, HepG2 cells were transfected with a Foxa-2 expression vector and either plasmid pPepck-Luc or p6xCdx-TkLuc that contain a 621 bp promoter framnent of the human PEPCK gene or six Foxa-2 binding sites of the Cdx-2 gene upstream of a minimal promoter and the luciferase gene, respectively.

Shp = Shp expression in primary adipocytes of lean mice cultured with insulin; format: cell-based; conditions: insulin 50 nM, 60 hours
Foxa-2 expression = Foxa-2 expression in primary adipocytes from ob/ob mice, semiquantitative RT-PCR; format: cell-based; conditions: insulin 100 μM as printed, prolonged culturing (24 and 60 hours)
Procedure: Total RNA was extracted from cells and EBs using Trizol following manufacturer's instructions (Life Technologies, Inc.). […] The cDNAs provided templates for polymerase chain reactions (PCRs) using specific primers at annealing temperatures ranging between 60 and 65° C. in the presence of dNTPs, [α^-32P]dCTP, and Taq DNA polymerase. […] Primary adipocytes were isolated as described by Rodbell (1964) J. Biol. Chem. 239:375-380. […] (1995) J. Cell. Biochem. 58:435-463. The reaction was stopped by spinning through dinonyl […] oil and the radioactivity quantified by scintillation counting. […] (1995) Am. J. Physiol. 268:[…]-[…]. Fatty acid de novo synthesis was analyzed by saponification of total lipids as described by […] et al. (1978) J. […] Incorporation into lipid glycerol was calculated by subtracting fatty acid radioactive label from total lipid radioactive label. Primary adipocytes were isolated from ob/ob mice and cultured in MEM medium (control) or in the presence of insulin (100 μM; 24 hours and 60 hours, respectively) or rosiglitazone (50 μM), WY14,643 (100 μM), dexamethason (1 μM), leptin (100 ng/ml), TNF-α, (5 ng/ml), adiponectin (500 ng/ml) and glucagons (100 nM) for 60 hours. Gene expression was measured by semiquantitative RT-PCR. Steady state mRNA levels of Hprt were used as a control and indicate that each lane contains similar amounts of rnRNA. Reactions were also assayed in the absence of reverse transcriptase, showing that mRNA was not contaminated with genomic DNA.

Fxr = Fxr expression in primary adipocytes of lean mice cultured with insulin; format: cell-based; conditions: insulin 50 nM, 60 hours
Foxa-1, 2 and 3 = assay: Expression levels of Foxa-1, 2 and 3 in primary hepatocytes (RT-PCR); format: cell-based; conditions: insulin-treated cells

insulin: Insulin was from Sigma; hormone used as stimulus
increase in nuclear Foxa-2 levels (Foxa-2 [1]; in response to insulin stimulation, within 5-20 minutes): > 20 fold
change in nuclear Foxa-2 expression (Foxa-2 [1]; livers exposed to low (fasting) vs high (postprandial) insulin levels): > 20 fold
nuclear Foxa-2 level (Foxa-2 [1]; perfusion with 2.0 ng/ml insulin, 20 minutes): barely detectable levels
mRNA levels of Pepck, G6pc and Igfbp-1 (Pepck, G6pc and Igfbp-1): significantly reduced
phosphorylated Foxa-2 detected by anti-phospho TI56 peptide antibody (Foxa-2 [2]; intraportal injection of insulin vs PBS): recognized phosphorylated Foxa-2
Foxa-2 protein levels (anti-Foxa-2 antibodies) (Foxa-2 [2]; treated vs untreated livers): the same
Foxa-2 activity (luciferase reporter) (Foxa-2 activity): significantly decreased
Expression of Shp (Shp): induced
Foxa-2 expression (Foxa-2 expression): strong increase
Fxr expression (Fxr): induced
expression levels of Foxa-1, 2 and 3 (Foxa-1, 2 and 3): did not significantly change
